In brackets after ≈: the same amount, converted by molar mass.
What was measured:
[1] = Psychomotor, subjective and cognitive tests; assay type: in vivo; conditions: human
Source text: D. Neurocognative Tests: The Cognitive Drug Research (CDR) computerized assessment system is specifically designed to evaluate the effects of compounds on the quality of cognitive functioning in subjects and patients in all phases of clinical development. The CDR system is a widely used computerized cognitive assessment system (see, for example, Ebert U, et al., “Pharmacokinetics and pharmacodynamics of scopolamine after subcutaneous administration,” Journal of Clinical Pharmacology 38: 720-726 (1998); Harrington F, et al., “Cognitive Performance in Hypertensive and Normotensive Older Subjects,” Hypertension 36: 1079-1082 (2000); Preece A W, et al., “Effect of a 915-MHz simulated mobile phone signal on cognitive function in man,” International Journal of Radiation Biology 75: 447-456 (1999); and Walker M P, et al., “Quantifying fluctuation in Dementia with Lewy Bodies, Alzheimer's disease and vascular dementia,” Neurology 54: 1616-1625 (2000)) and has been used to evaluate a diverse range of pharmaceutical compounds.
This example describes the pharmacodynamic effects of clonazepam compositions formulated for intranasal administration using neurocognitive tests. A selection of tests from a computerized assessment system of Cognitive Drug Research (“CDR,” Reading, United Kingdom) is employed. The study is typically a double-blind, randomized, placebo-controlled cross-over design. As a control, the group may receive clonazepam intravenous (i.v.) and placebo at selected dosages.
Cognitive function is typically assessed using an attentional task battery to assess attention and a word recognition task to assess secondary memory. […]
Tests may be administered, for example, in the following order: Word Presentation; Simple Reaction Time; Digit Vigilance; Choice Reaction Time; and Word Recognition. […] Summary statistics (m, number; mean; sem, standard error; sd, standard deviation; median; min, minimum; max, maximum; and missing) are typically calculated for each measure at each time point by dose. […]

[2] = Solubilities of clonazepam in solvent/water solutions (glycol ether + pH6.8 buffered water, 25° C.); assay type: physicochemical; conditions: Di (ethyleneglycol) diethyl ether, 20% solvent / 80% pH6.8 buffered water
Description: The vials were stored at 25° C. for approximately 1 day. Prior to sampling, the vials were centrifuged at 5000 rpm for 2 minutes at 23° C. The results are shown below; neat solvent solubilities from Example 11 are included for reference. Increased water content decreases solubility substantially.

[3] = Solubilities of clonazepam in glycol ethers at 3 temperatures
Description: The vials were then centrifuged at −5° C. and 5° C. for the −15° C. and 5° C. samples, respectively, at 5000 rpm for 2 minutes.

[4] = Human pharmacokinetic, safety and tolerability study (oral, intravenous, intranasal cross-over)
Description: The human pharmacokinetics, safety, and tolerability of the clonazepam compositions of the present invention formulated for intranasal delivery for therapeutic applications are evaluated using standard clinical procedures. Clonazepam compositions formulated for intranasal delivery are provided, for example, for application by the participants to intranasal mucosa.
A primary objective of initial studies in humans is to determine and compare pharmacokinetic profiles of three dosage forms of clonazepam: oral, i.v., and intranasal, following single administration. An example of such a study in humans is a cross-over study performed in 12 healthy male volunteers. Plasma and urine level of clonazepam and 7-amino-clonazepam are determined, for example, using HPLC and UV detection. […] Further the initial studies in humans are used to determine local tolerability of intranasal formulation using questionnaire and the Visual Analog Scale (VAS). VAS is a validated instrument that has been used in numerous studies to quantify subjective opening of the nasal passages. In addition, cognitive, sleepiness and mood effects are evaluated using questionnaires and scales (see, e.g., Example 10 below). Further, attention and vigilance may be evaluated using, for example, LEEDS Psychomotor Multiple Choice Reaction Time (MCRT) testing.
A human pharmacokinetic study was carried out as described in Example 8.
15 young, healthy male volunteers received a single dose of 1 mg clonazepam by oral, intravenous and intranasal routes in a three-period cross-over design.

In the case of `O=C1CN=C(c2ccccc2Cl)c2cc([N+](=O)[O-])ccc2N1` [Clonazepam, 5-(2-chlorophenyl)-1,3-dihydro-7-nitro-2H-1,4-benzodiazepin-2-one], the “time at which effects were first apparent (Leeds Psychomotor Test, Bond and Lader VAS, Karolinska Sleepiness Scale)” value (“time” below) ([1]; intranasal administration) is reported as “approximately 30 minutes”, the “time” value ([1]; intravenous administration) is reported as “approximately 30 minutes” and the “time” value ([1]; oral administration) is reported as “approximately 2 hours”. The “Solubilities (mg/mL) of Clonazepam in Solvent/Water Solutions” value [2] was 0.31 mg/mL, the Solubility ([3]; in 1,2-dimethyxoethane, 5 C.) was 35.7 mg/mL (≈ 113 mM) and the Solubility ([3]; in 1,2-dimethyxoethane, −15 C.) was 35.2 mg/mL (≈ 111 mM). It also gave a Solubility ([3]; in Di (ethylene glycol) methyl ether, 5 C.) of 53.9 mg/mL (≈ 171 mM), a Solubility ([3]; in Di (ethylene glycol) methyl ether, −15 C.) of 58.1 mg/mL (≈ 184 mM) and a Solubility ([3]; in Di (ethyleneglycol) diethyl ether, 5 C.) of 18.5 mg/mL (≈ 58.6 mM). The Solubility ([3]; in Di (ethyleneglycol) diethyl ether, −15 C.) was 19.5 mg/mL (≈ 61.8 mM), the Solubility ([3]; in Diethylene glycol monoethyl ether, 5 C.) was 37.7 mg/mL (≈ 119 mM) and the Solubility ([3]; in Diethylene glycol monoethyl ether, −15 C.) was 43.3 mg/mL (≈ 137 mM). The “Cmax of the intranasal route as % of that of the intravenous route” value ([4]; 1 mg) was 17%, the “Cmax of the intranasal route as % of that of the oral route” value ([4]; 1 mg) was 93% and the “median Tmax” value ([4]; 1 mg single dose, intravenous, 15 volunteers) was 6 min. The “mean Cmax (mean ±SD)” value ([4]; 1 mg, intranasal route) was 7.12 ± 3.81 ng/mL, the “mean Cmax (mean ±SD)” value ([4]; 1 mg, intravenous route) was 42.5±10.8 and the “mean Cmax (mean ±SD)” value ([4]; 1 mg, oral route) was 7.64 ± 1.74 ng/mL. For the same molecule, the subjects reporting somnolence ([4]; after intranasal dosing, 10 of 15) was “approximately 67%”, the “subjects reporting nasal discomfort” value ([4]; after intranasal dosing, 12 of 15) was “approximately 80%” and the subjects reporting sedation ([4]; after intravenous dosing) was 3/15. The subjects reporting somnolence ([4]; after intravenous dosing) was 11/15, the “subjects reporting somnolence or sedation” value ([4]; after intravenous dosing) was “Approximately 93%” and the subjects reporting somnolence ([4]; after oral dosing, 13 of 15) was “approximately 87%”.

Reference: patent US8716279B2, “Pharmaceutical compositions of clonazepam and method of use thereof” (Jazz Pharmaceuticals, Inc., priority 2006, dated 2014)
